This note sets out measurements from patent publication US20260062422A1 (Halda Therapeutics OpCo, Inc., priority 2022, published 2026).

In experiment [1] the test system is T-Rex 293 cell line SC3 cells having increased expression of androgen receptor protein due to exposure to doxycycline. In words: Cellular growth inhibition, T-Rex 293 SC3 cells with doxycycline (androgen receptor induced), CellTiter-Glo. Type of experiment: cell-based. The conditions noted are these: 72 h, T-Rex 293 SC3 cells with 10 ng/mL doxycycline (increased androgen receptor expression). The method, boiled down:
(§1)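 GI50 came from a four-parameter fit of CellTiter-Glo 2.0 luminescence after 72 h compound exposure (0.5% DMSO, 37 °C), dosing 24 h post-seeding. SC3 clone cells (2500/well), transfected with wild-type androgen receptor, grew in charcoal-stripped serum medium lacking phenol red, induced with 10 ng/mL doxycycline or left uninduced.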
A general note: ATP-based viability assays read luminescence as a measure of living cells.

For a further experiment, the system named is VCaP cells. In words: Cellular growth inhibition assay for VCaP cells, CellTiter-Glo. Type of experiment: cell-based, human. The settings on record: Homo sapiens, VCaP, 72 h, 72 hours treatment, CellTiter-Glo 2.0. The method, boiled down:
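GI50 values come from four-parameter curve fits of luminescence data normalized to a zero baseline. Compound, in medium with 0.5% DMSO, was added one day after plating and left for 72 h before CellTiter-Glo 2.0 addition.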

The next experiment relates to T47D cells. In words: Cellular growth inhibition assay for T47D cells, CellTiter-Glo. Type of experiment: cell-based, human. The settings on record: Homo sapiens, T47D, 72 h, 72 hours treatment, CellTiter-Glo 2.0 cell viability. The method, boiled down:
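Cells are plated at 3000/well and allowed 24 h before treatment. Test compound in medium containing 0.5% DMSO is then added, with DMSO-only wells as negative control, and plates are incubated 72 h at 37 °C. ATP luminescence (CellTiter-Glo 2.0) is then fitted to four parameters to derive GI50.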

In experiment [2] the test system is T-Rex 293 cell line SC3 cells lacking increased expression of androgen receptor protein. In words: Cellular growth inhibition, T-Rex 293 SC3 cells without doxycycline, CellTiter-Glo. Type of experiment: cell-based. The conditions noted are these: 72 h, T-Rex 293 SC3 cells not exposed to doxycycline, CellTiter-Glo 2.0. The method, boiled down: as §1

Consider `Cc1sc2c(c1C)C(c1ccc(OC3CC4(C3)CC3(CCN(c5ncc(C(=O)N[C@H]6C(C)(C)[C@H](Oc7ccc(C#N)c(Cl)c7)C6(C)C)cn5)CC3)C4)cc1)=N[C@@H](C)c1nnc(C)n1-2` [Compound I-411], for which the GI50 – broadly, the concentration that inhibits growth by half – in experiment [1] was below 500 nM; in the experiment with VCaP cells, below 500 nM; with T47D cells, 500 to 1500 nM; in experiment [2], above 3000 nM.
As for `Cc1sc2c(c1C)C(c1ccc(C3CC(N4CCN(c5ccc(C(=O)N[C@H]6C(C)(C)[C@H](Oc7ccc(C#N)c(Cl)c7)C6(C)C)nc5)CC4)C3)cc1)=N[C@@H](C)c1nnc(C)n1-2` (some centres unmarked) [Compound I-577], the GI50 is below 500 nM in experiment [1], below 500 nM with VCaP cells, below 500 nM in the experiment on T47D cells and 500 to 1500 nM in experiment [2].
`CC[C@@H]1N=C(c2ccc(N3CC(CC4CCN(c5ncc(C(=O)N[C@H]6C(C)(C)[C@H](Oc7ccc(C#N)c(Cl)c7)C6(C)C)cn5)CC4)C3)cc2)c2c(sc(C)c2C)-n2c(C)nnc21` [Compound I-593]: the GI50 in experiment [1] is below 500 nM; with VCaP cells, below 500 nM; in the experiment with T47D cells, below 500 nM; in experiment [2], above 3000 nM.
Regarding `CCNC(=O)C[C@@H]1N=C(c2ccc(N3CC(OC4CCN(c5ncc(C(=O)N[C@H]6C(C)(C)[C@H](Oc7ccc(C#N)c(Cl)c7)C6(C)C)cn5)CC4)C3)cc2)c2c(sc(C)c2C)-n2c(C)nnc21` [Compound I-117], the concentration for 50% growth inhibition (GI50) in experiment [1] is below 500 nM; in the experiment on VCaP cells, below 500 nM; in the experiment on T47D cells, below 500 nM; in experiment [2] it was 500 to 1500 nM.
On to `Cc1sc2c(c1C)C(c1ccc(OC3CC4(CCN(c5ncc(C(=O)N[C@H]6C(C)(C)[C@H](Oc7ccc(C#N)c(Cl)c7)C6(C)C)cn5)CC4)C3)cc1)=N[C@@H](Cc1nnn(C)n1)c1nnc(C)n1-2` [Compound I-218, N-[3-(3-chloro-4-cyano-phenoxy)-2,2,4,4-tetramethyl-cyclobutyl]-2-[2-[4-[(9S)-4,5,13-trimethyl-9-[(2-methyltetrazol-5-yl)methyl]-3-thia-1,8,11,12-tetrazatricyclo[8.3.0.02,6]trideca-2(6),4,7,10,12-pentaen-7-yl]phenoxy]-7-azaspiro[3.5]nonan-7-yl]pyrimidine-5-carboxamide], for which the GI50 in experiment [1] was below 500 nM; in the experiment with VCaP cells, below 500 nM; in the experiment on T47D cells it was below 500 nM; in experiment [2], above 3000 nM.
For the compound `Cc1sc2c(c1C)C(c1ccc(N3CCC[C@H](C(=O)N4CCC[C@@H](c5ncc(C(=O)N[C@H]6C(C)(C)[C@H](Oc7ccc(C#N)c(Cl)c7)C6(C)C)cn5)C4)C3)cc1)=N[C@H](Cc1ncco1)c1nnc(C)n1-2` [Compound I-339], the concentration for 50% growth inhibition (GI50) (in experiment [1]; in the experiment on VCaP cells; in the experiment on T47D cells; in experiment [2]) was above 3000 nM throughout.
Regarding `Cc1sc2c(c1C)C(c1ccc(CC3CC4(CCN(c5cnc(C(=O)N[C@H]6C(C)(C)[C@H](Oc7ccc(C#N)c(Cl)c7)C6(C)C)cn5)CC4)C3)cc1)=N[C@@H](Cc1ncco1)c1nnc(C)n1-2` [Compound I-547], the concentration for 50% growth inhibition (GI50) was below 500 nM in experiment [1], above 3000 nM in the experiment on VCaP cells, below 500 nM in the experiment on T47D cells and below 500 nM in experiment [2].
As for `Cc1sc2c(c1C)C(c1ccc(O[C@@H]3CO[C@]4(CCCN(c5ncc(C(=O)N[C@H]6C(C)(C)[C@H](Oc7ccc(C#N)c(Cl)c7)C6(C)C)cn5)C4)C3)cc1)=N[C@@H](Cc1ncco1)c1nnc(C)n1-2` [Compound I-187], the concentration for 50% growth inhibition (GI50) (in experiment [1]; in the experiment with VCaP cells; in the experiment on T47D cells; in experiment [2]) was below 500 nM each time.
On to `Cc1sc2c(c1C)C(c1ccc(CCCCC3CCN(c4ncc(C(=O)N[C@H]5C(C)(C)[C@H](Oc6ccc(C#N)c(Cl)c6)C5(C)C)cn4)CC3)cc1)=NC(Cc1ncco1)c1nnc(C)n1-2` (some centres unmarked) [Compound I-135], for which the 50% growth inhibitory concentration (GI50) in experiment [1] was below 500 nM; with VCaP cells, below 500 nM; in the experiment on T47D cells, below 500 nM; in experiment [2], above 3000 nM.
Regarding `Cc1sc2c(c1C)C(c1ccc(N[C@H]3CCCCN(c4ncc(C(=O)N[C@H]5C(C)(C)[C@H](Oc6ccc(C#N)c(Cl)c6)C5(C)C)cn4)C3)cc1)=NC(Cc1ncco1)c1nnc(C)n1-2` (some centres unmarked) [Compound I-655], the 50% growth inhibitory concentration (GI50) was below 500 nM in experiment [1], 1500 to 3000 nM with VCaP cells, 500 to 1500 nM in the experiment with T47D cells and above 3000 nM in experiment [2].
The corresponding values for `Cc1sc2c(c1C)C(c1ccc(OC3CC4(CCN(c5ncc(C(=O)N[C@H]6C(C)(C)[C@H](Oc7ccc(C#N)c(Cl)c7)C6(C)C)cn5)CC4)C3)cc1)=N/C(=C/c1ncco1)c1nnc(C)n1-2` [Compound I-230, N-[3-(3-chloro-4-cyano-phenoxy)-2,2,4,4-tetramethyl-cyclobutyl]-2-[2-[4-[(9E)-4,5,13-trimethyl-9-(oxazol-2-ylmethylene)-3-thia-1,8,11,12-tetrazatricyclo[8.3.0.02,6]trideca-2(6),4,7,10,12-pentaen-7-yl]phenoxy]-7-azaspiro[3.5]nonan-7-yl]pyrimidine-5-carboxamide] are below 500 nM, below 500 nM, above 3000 nM and above 3000 nM.
Taken in the same sequence, the figures for `Cc1sc2c(c1C)C(c1ccc(CC[C@@H]3CC[C@@]4(CCCN(c5ncc(C(=O)N[C@H]6C(C)(C)[C@H](Oc7ccc(C#N)c(Cl)c7)C6(C)C)cn5)C4)C3)cc1)=N[C@@H](Cc1ncco1)c1nnc(C)n1-2` [Compound I-249] were above 3000 nM, above 3000 nM, above 3000 nM and above 3000 nM.
Turning to `Cc1sc2c(c1C)C(c1ccc(-c3ncc(C4CCN(c5ncc(C(=O)N[C@H]6C(C)(C)[C@H](Oc7ccc(C#N)c(Cl)c7)C6(C)C)cn5)CC4)o3)cc1)=N[C@@H](Cc1ncco1)c1nnc(C)n1-2` [Compound I-442], the GI50 in experiment [1] was below 500 nM; in the experiment on VCaP cells, below 500 nM; in the experiment on T47D cells it was below 500 nM; in experiment [2], above 3000 nM.
`Cc1sc2c(c1C)C(c1ccc(N3CCC[C@@H](OCCc4ncc(C(=O)N[C@H]5C(C)(C)[C@H](Oc6ccc(C#N)c(Cl)c6)C5(C)C)cn4)C3)cc1)=N[C@@H](Cc1ncco1)c1nnc(C)n1-2` [Compound I-451]: the GI50 is below 500 nM in experiment [1], below 500 nM in the experiment on VCaP cells, 500 to 1500 nM in the experiment on T47D cells and 500 to 1500 nM in experiment [2].
Turning to `Cc1sc2c(c1C)C(c1ccc([C@H]3CCN(C(=O)[C@@H]4CCCN(c5ncc(C(=O)N[C@H]6C(C)(C)[C@H](Oc7ccc(C#N)c(Cl)c7)C6(C)C)cn5)C4)C3)cc1)=N[C@@H](Cc1ncco1)c1nnc(C)n1-2` [Compound I-384], the GI50 (in experiment [1]; in the experiment on VCaP cells; in the experiment with T47D cells; in experiment [2]) was below 500 nM throughout.
Regarding `Cc1sc2c(c1C)C(c1ccc([C@@H]3CCN(C(=O)[C@@H]4CCCN(c5ncc(C(=O)N[C@H]6C(C)(C)[C@H](Oc7ccc(C#N)c(Cl)c7)C6(C)C)cn5)C4)C3)cc1)=N[C@@H](Cc1ncco1)c1nnc(C)n1-2` [Compound I-383], the GI50 (in experiment [1]; in the experiment on VCaP cells; in the experiment with T47D cells; in experiment [2]) was above 3000 nM throughout.
`Cc1sc2c(c1C)C(c1ccc(CCCOC3CCN(c4ncc(C(=O)N[C@H]5C(C)(C)[C@H](Oc6ccc(C#N)c(Cl)c6)C5(C)C)cn4)CC3)cc1)=N[C@H](Cc1cccnc1)c1nnc(C)n1-2` [Compound I-217]: the GI50 in experiment [1] was below 500 nM; in the experiment with VCaP cells, below 500 nM; in the experiment with T47D cells, below 500 nM; in experiment [2], above 3000 nM.
